Read-outs that look alike come from different tables or passages of the source.
Assays:
[1] = target: T1, PI3K (Homo sapiens, UniProt P42336); assay: Fluorescence polarization assay for PI3K; type: biochemical; conditions: read-out: PI3 Kinase α IC50
T1 construct: PI3 Kinase α IC50; other: PI3 Kinase α; other: PI3 Kinase α isoform, fluorescence polarization
How it was run: (§1)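 PI3K was preincubated with compound (final DMSO 1%), and the reaction was started with PIP2/ATP substrate and run 30–60 min. It was stopped with a detector mix giving 10 nM red probe and 70 nM GST-GRP.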

[2] = target: T2, PI3K (Homo sapiens, UniProt P48736); assay: Fluorescence polarization assay for PI3K; type: biochemical; conditions: read-out: PI3 Kinase γ IC50
T2 construct: PI3 Kinase γ IC50; other: PI3 Kinase γ; other: PI3 Kinase γ isoform, fluorescence polarization
T2 sequence (P48736 whole entry, canonical isoform): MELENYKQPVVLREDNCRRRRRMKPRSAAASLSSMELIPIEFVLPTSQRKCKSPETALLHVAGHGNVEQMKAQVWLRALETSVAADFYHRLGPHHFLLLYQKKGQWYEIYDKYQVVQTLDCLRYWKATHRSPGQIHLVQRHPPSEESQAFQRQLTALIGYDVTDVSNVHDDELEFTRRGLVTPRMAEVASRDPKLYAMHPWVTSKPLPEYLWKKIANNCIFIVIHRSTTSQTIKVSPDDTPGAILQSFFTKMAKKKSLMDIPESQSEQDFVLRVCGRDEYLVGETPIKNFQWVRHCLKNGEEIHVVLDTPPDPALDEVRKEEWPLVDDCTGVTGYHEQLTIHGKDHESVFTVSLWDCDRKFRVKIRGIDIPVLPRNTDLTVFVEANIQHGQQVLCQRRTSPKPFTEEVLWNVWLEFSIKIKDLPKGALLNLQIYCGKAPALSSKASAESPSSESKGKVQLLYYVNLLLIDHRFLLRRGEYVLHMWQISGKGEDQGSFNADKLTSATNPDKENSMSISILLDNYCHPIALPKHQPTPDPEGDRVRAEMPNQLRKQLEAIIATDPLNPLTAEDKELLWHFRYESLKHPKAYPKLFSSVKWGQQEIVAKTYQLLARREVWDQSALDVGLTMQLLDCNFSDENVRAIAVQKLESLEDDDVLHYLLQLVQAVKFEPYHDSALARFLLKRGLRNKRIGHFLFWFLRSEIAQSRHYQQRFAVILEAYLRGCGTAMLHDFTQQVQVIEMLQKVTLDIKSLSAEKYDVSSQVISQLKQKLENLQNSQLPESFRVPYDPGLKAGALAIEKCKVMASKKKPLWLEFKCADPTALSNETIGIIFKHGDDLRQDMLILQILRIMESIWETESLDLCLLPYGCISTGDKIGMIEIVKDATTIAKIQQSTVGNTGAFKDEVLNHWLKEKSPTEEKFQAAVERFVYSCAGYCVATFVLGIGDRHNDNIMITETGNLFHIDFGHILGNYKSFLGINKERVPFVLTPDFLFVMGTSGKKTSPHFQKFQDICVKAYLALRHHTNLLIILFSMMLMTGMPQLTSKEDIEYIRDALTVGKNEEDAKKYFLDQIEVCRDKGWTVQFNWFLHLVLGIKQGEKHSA
How it was run: as §1

[3] = system: breast line MDA468; assay: In vitro cell culture growth assay (MTS), MDA468; type: cell-based; conditions: Homo sapiens, 72 h, MDA468 cells, three days after drug treatment
How it was run: (§2)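 The readout was MTS dye metabolism at 490 nm, taken after 3-day drug exposure that began the day after seeding. Growth was expressed as percent of vehicle-treated wells in the same plate.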

[4] = target: T3, Human mTOR (FLAG-TOR) (Homo sapiens, UniProt P42345); assay: Human mTOR kinase assay with purified enzyme, DELFIA format; type: biochemical
T3 construct: FLAG
How it was run: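 Purified FLAG-mTOR in HEPES pH 7.4 buffer with 10 mM MnCl2 was preincubated with inhibitor and reacted 2 h at room temperature with His6-S6K substrate, then stopped with EDTA/EGTA. Phospho-T389 S6K detected by DELFIA with Eu-labelled antibody (40 ng/mL) after plate capture; inhibition computed from signal.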

[5] = system: prostate line LNCap; assay: In vitro cell culture growth assay (MTS), LNCap; type: cell-based; conditions: Homo sapiens, LNCaP, 72 h, LNCap cells, three days after drug treatment
How it was run: as §2

[6] = PI3 Kinase α isoform, fluorescence polarization
[7] = PI3 Kinase γ isoform, fluorescence polarization
[8] = purified human mTOR enzyme, DELFIA format

T1 sequence (P42336 whole entry, canonical isoform): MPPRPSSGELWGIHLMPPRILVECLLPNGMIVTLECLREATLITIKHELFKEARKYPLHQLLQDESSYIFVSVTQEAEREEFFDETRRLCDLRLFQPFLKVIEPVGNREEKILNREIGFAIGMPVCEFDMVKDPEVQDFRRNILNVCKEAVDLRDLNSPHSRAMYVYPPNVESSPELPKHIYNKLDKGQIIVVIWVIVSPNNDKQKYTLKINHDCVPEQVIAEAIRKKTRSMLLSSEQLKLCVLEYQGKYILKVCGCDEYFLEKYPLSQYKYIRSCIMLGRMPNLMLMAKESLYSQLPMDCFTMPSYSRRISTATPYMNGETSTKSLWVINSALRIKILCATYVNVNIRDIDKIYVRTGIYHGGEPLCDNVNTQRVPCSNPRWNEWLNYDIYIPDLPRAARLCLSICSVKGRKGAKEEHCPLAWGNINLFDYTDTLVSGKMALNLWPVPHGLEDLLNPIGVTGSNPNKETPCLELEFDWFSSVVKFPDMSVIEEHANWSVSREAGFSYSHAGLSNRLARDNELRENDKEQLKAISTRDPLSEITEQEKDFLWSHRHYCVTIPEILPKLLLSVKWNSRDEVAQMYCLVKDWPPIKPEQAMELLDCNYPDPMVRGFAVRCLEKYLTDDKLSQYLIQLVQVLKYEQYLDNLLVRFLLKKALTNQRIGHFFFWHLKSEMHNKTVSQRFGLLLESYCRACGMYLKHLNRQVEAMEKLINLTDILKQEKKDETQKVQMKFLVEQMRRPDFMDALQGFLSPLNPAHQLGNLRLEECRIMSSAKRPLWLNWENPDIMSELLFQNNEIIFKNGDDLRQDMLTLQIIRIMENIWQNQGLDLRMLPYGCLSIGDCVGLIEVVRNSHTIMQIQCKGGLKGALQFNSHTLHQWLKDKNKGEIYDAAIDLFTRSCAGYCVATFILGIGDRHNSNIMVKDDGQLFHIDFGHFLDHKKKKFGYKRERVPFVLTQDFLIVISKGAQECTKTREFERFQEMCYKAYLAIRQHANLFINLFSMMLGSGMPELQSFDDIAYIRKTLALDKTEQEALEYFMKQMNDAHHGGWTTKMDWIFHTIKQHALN

| SMILES | IC50 ([1]; PI3 Kinase α) | IC50 ([2]; PI3 Kinase γ) | IC50 [4] | IC50 [5] | IC50 [1, 6] | IC50 [2, 7] | IC50 [4, 8] | IC50 [3] |
| --- | --- | --- | --- | --- | --- | --- | --- | --- |
| CC(C)C(=O)N1CCC(n2ncc3c(N4CC5CCC(C4)O5)nc(-c4ccc(NC(=O)NC5CC5)cc4)nc32)CC1 [Example 86, 1-cyclopropyl-3-{4-[1-(1-isobutyrylpiperidin-4-yl)-4-(8-oxa-3-azabicyclo[3.2.1]oct-3-yl)-1H-pyrazolo[3,4-d]pyrimidin-6-yl]phenyl}urea] | 4240 nM | > 10000 nM | 0.66 nM | 80 nM | – | – | – | 350 nM |
| O=C(Nc1ccncc1)Nc1ccc(-c2nc(N3CC4CCC(C3)O4)c3cnn(CCO)c3n2)cc1 [Example 200, 1-{4-[1-(2-hydroxyethyl)-4-(8-oxa-3-azabicyclo[3.2.1]oct-3-yl)-1H-pyrazolo[3,4-d]pyrimidin-6-yl]phenyl}-3-pyridin-4-ylurea] | 92 nM | 2200 nM | 0.39 nM | 50 nM | – | – | – | 50 nM |
| O=C(Nc1ccc(-c2nc(N3CC4CCC(C3)O4)c3cnn(CCO)c3n2)cc1)OCCO [Example 195, 2-hydroxyethyl {4-[1-(2-hydroxyethyl)-4-(8-oxa-3-azabicyclo[3.2.1]oct-3-yl)-1H-pyrazolo[3,4-d]pyrimidin-6-yl]phenyl}carbamate] | 1880 nM | > 10000 nM | 4.9 nM | 640 nM | – | – | – | 1500 nM |
| O=CN1CC2CN(c3nc(-c4ccc(NC(=O)Nc5ccncc5)cc4)nc4c3cnn4CC(F)(F)F)CC(C1)O2 [Example 338, 1-{4-[4-(7-formyl-9-oxa-3,7-diazabicyclo[3.3.1]non-3-yl)-1-(2,2,2-trifluoroethyl)-1H-pyrazolo[3,4-d]pyrimidin-6-yl]phenyl}-3-pyridin-4-ylurea] | – | – | – | 2950 nM | 9500 nM | > 10000 nM | 787 nM | 1870 nM |
| CN(C)CCn1ncc2c(N3CC4CCC(C3)O4)nc(-c3ccc(NC(=O)Nc4ccncc4)cc3)nc21 [Example 162, 1-(4-{1-[2-(dimethylamino)ethyl]-4-(8-oxa-3-azabicyclo[3.2.1]oct-3-yl)-1H-pyrazolo[3,4-d]pyrimidin-6-yl}phenyl)-3-pyridin-4-ylurea] | 173 nM | 482 nM | 1.2 nM | 50 nM | – | – | – | 200 nM |
| Nc1ccc(-c2nc(N3CC4CCC(C3)O4)c3cnn(C4CCC5(CC4)OCCO5)c3n2)cc1 [Example 81, 4-[1-(1,4-dioxaspiro[4.5]dec-8-yl)-4-(8-oxa-3-azabicyclo[3.2.1]oct-3-yl)-1H-pyrazolo[3,4-d]pyrimidin-6-yl]aniline] | > 10000 nM | > 10000 nM | 54 nM | 1050 nM | – | – | – | 5800 nM |
| O=C(Nc1ccc(-c2nc(N3CC4CCC(C3)O4)c3cn[nH]c3n2)cc1)Nc1cccnc1 [Example 91, 1-{4-[4-(8-oxa-3-azabicyclo[3.2.1]oct-3-yl)-1H-pyrazolo[3,4-d]pyrimidin-6-yl]phenyl}-3-pyridin-3-ylurea] | 306 nM | 2640 nM | 0.49 nM | 500 nM | – | – | – | 120 nM |
| CC(C)(C)OC(=O)N1CCC(n2ncc3c(N4CC5CCC(C4)O5)nc(-c4ccc(NC(=O)Nc5ccncc5)cc4)nc32)CC1 [Example 25, tert-butyl 4-[4-(8-oxa-3-azabicyclo[3.2.1]oct-3-yl)-6-{4-[(pyridin-4-ylcarbamoyl)amino]phenyl}-1H-pyrazolo[3,4-d]pyrimidin-1-yl]piperidine-1-carboxylate] | 595 nM | 1640 nM | 0.47 nM | 38 nM | – | – | – | 70 nM |
| Cn1ncc2c(N3CC4COC(C3)O4)nc(-c3ccc(NC(=O)Nc4cccnc4)cc3)nc21 (stereo not shown) [Example 391, 1-{4-[4-(6,8-dioxa-3-azabicyclo[3.2.1]oct-3-yl)-1-methyl-1H-pyrazolo[3,4-d]pyrimidin-6-yl]phenyl}-3-pyridin-3-ylurea] | – | – | – | 185 nM | 101 nM | 919 nM | 4.2 nM | 580 nM |

The next molecules have a lower IC50 [5] than those just listed; values first:

| IC50 ([1]; PI3 Kinase α) | IC50 ([2]; PI3 Kinase γ) | IC50 [4] | IC50 [5] | IC50 [1, 6] | IC50 [2, 7] | IC50 [4, 8] | SMILES | IC50 [3] |
| --- | --- | --- | --- | --- | --- | --- | --- | --- |
| 3850 nM | > 10000 nM | 0.56 nM | 27 nM | – | – | – | CC(C)(C)OC(=O)N1CCC(n2ncc3c(N4CC5CCC(C4)O5)nc(-c4ccc(NC(=O)NC5CC5)cc4)nc32)CC1 [Example 22, tert-butyl 4-[6-{4-[(cyclopropylcarbamoyl)amino]phenyl}-4-(8-oxa-3-azabicyclo[3.2.1]oct-3-yl)-1H-pyrazolo[3,4-d]pyrimidin-1-yl]piperidine-1-carboxylate] | 150 nM |
| 12000 nM | > 10000 nM | 0.22 nM | 2 nM | – | – | – | O=C(Nc1ccc(-c2nc(N3CC4CCC(C3)O4)c3cnn(C4CCC5(CC4)OCCO5)c3n2)cc1)NC1CC1 [Example 126, 1-cyclopropyl-3-{4-[1-(1,4-dioxaspiro[4.5]dec-8-yl)-4-(8-oxa-3-azabicyclo[3.2.1]oct-3-yl)-1H-pyrazolo[3,4-d]pyrimidin-6-yl]phenyl}urea] | 58 nM |
| – | – | – | 10 nM | 80 nM | 1380 nM | 0.39 nM | O=C(Nc1ccncc1)Nc1ccc(-c2nc(N3CC4CCC(C3)O4)c3sccc3n2)cc1 [Example 413, 1-{4-[4-(8-oxa-3-azabicyclo[3.2.1]oct-3-yl)thieno[3,2-d]pyrimidin-2-yl]phenyl}-3-pyridin-4-ylurea] | 48 nM |
| 40 nM | 1270 nM | 0.12 nM | < 1 nM | – | – | – | CCn1ncc2c(N3CC4CCC(C3)O4)nc(-c3ccc(NC(=O)Nc4ccc(CO)cc4)cc3)nc21 [Example 182, 1-{4-[1-ethyl-4-(8-oxa-3-azabicyclo[3.2.1]oct-3-yl)-1H-pyrazolo[3,4-d]pyrimidin-6-yl]phenyl}-3-[4-(hydroxymethyl)phenyl]urea] | < 1 nM |
| – | – | – | 4 nM | 1460 nM | 8000 nM | 0.48 nM | O=C(Nc1ccc(-c2nc(N3CC4CCC(C3)O4)c3cnn(CC(F)(F)F)c3n2)cc1)NC1CC1 [Example 395, 1-cyclopropyl-3-{4-[4-(8-oxa-3-azabicyclo[3.2.1]oct-3-yl)-1-(2,2,2-trifluoroethyl)-1H-pyrazolo[3,4-d]pyrimidin-6-yl]phenyl}urea] | 60 nM |
| 282 nM | 9500 nM | 0.34 nM | 20 nM | – | – | – | CC(C)(C)n1ncc2c(N3CC4CCC(C3)O4)nc(-c3ccc(NC(=O)NCCO)cc3)nc21 [Example 97] | 180 nM |
| 116 nM | 916 nM | 0.305 nM | 1 nM | – | – | – | Cn1ncc2c(N3CC4CCC(C3)O4)nc(-c3ccc(NC(=O)Nc4ccc(S(=O)(=O)CCN5CCCCC5)cc4)cc3)nc21 [Example 240, 1-{4-[1-methyl-4-(8-oxa-3-azabicyclo[3.2.1]oct-3-yl)-1H-pyrazolo[3,4-d]pyrimidin-6-yl]phenyl}-3-{4-[(2-piperidin-1-ylethyl)sulfonyl]phenyl}urea] | 8 nM |
| 116 nM | 1300 nM | 0.835 nM | 4 nM | – | – | – | CN(C)CCOc1ccc(NC(=O)Nc2ccc(-c3nc(N4CC5CCC(C4)O5)c4cnn(CCF)c4n3)cc2)cc1 [Example 243, 1-{4-[2-(dimethylamino)ethoxy]phenyl}-3-{4-[1-(2-fluoroethyl)-4-(8-oxa-3-azabicyclo[3.2.1]oct-3-yl)-1H-pyrazolo[3,4-d]pyrimidin-6-yl]phenyl}urea] | 9 nM |
| – | – | – | 1 nM | 1500 nM | 6600 nM | 0.52 nM | CO[C@H]1CC[C@H](n2ncc3c(N4CC5CCC(C4)O5)nc(-c4ccc(NC(=O)NC5CC5)cc4)nc32)CC1 (relative stereo) [Example 399, 1-cyclopropyl-3-{4-[1-(trans-4-methoxycyclohexyl)-4-(8-oxa-3-azabicyclo[3.2.1]oct-3-yl)-1H-pyrazolo[3,4-d]pyrimidin-6-yl]phenyl}urea] | 41 nM |
| 5130 nM | > 10000 nM | 0.225 nM | 1 nM | – | – | – | O=C(NCCF)Nc1ccc(-c2nc(N3CC4CCC(C3)O4)c3cnn(C4CCC5(CC4)OCCO5)c3n2)cc1 [Example 124, 1-{4-[1-(1,4-dioxaspiro[4.5]dec-8-yl)-4-(8-oxa-3-azabicyclo[3.2.1]oct-3-yl)-1H-pyrazolo[3,4-d]pyrimidin-6-yl]phenyl}-3-(2-fluoroethyl)urea] | 20 nM |
| 146 nM | 1710 nM | 0.268 nM | 1 nM | – | – | – | CN1CCN(c2ccc(NC(=O)Nc3ccc(-c4nc(N5CC6CCC(C5)O6)c5cnn(C6CCC7(CC6)OCCO7)c5n4)cc3)cc2)CC1 [Example 135, 1-{4-[1-(1,4-dioxaspiro[4.5]dec-8-yl)-4-(8-oxa-3-azabicyclo[3.2.1]oct-3-yl)-1H-pyrazolo[3,4-d]pyrimidin-6-yl]phenyl}-3-[4-(4-methylpiperazin-1-yl)phenyl]urea] | 1 nM |

From US8129371B2, “Thienopyrimidine and pyrazolopyrimidine compounds and their use as mTOR kinase and PI3 kinase inhibitors” (Wyeth LLC, priority 2007, dated 2012)
